# Assays:
# TTXs Na channels = assay: Whole-cell electrophysiological assay of TTXs Na currents in DRG neurons; type: cell-based, Sprague-Dawley rat
# Excerpt: FIG. 7 illustrates that at a membrane potential of −55 mV, SNX-483 more potently blocks TTXi Na currents than TTXs Na currents. In experiments carried out in support of the present invention, DRGs containing predominantly TTXi Na currents and TTXs currents were superfused sequentially with increasing concentrations of SNX-483. […]
# 10-20 day old Sprague-Dawley rat pups were euthanized using CO2 or decapitation. Dorsal root ganglia were removed and placed in Dulbecco s Minimum Essential Medium supplemented with 10% (v/v) fetal bovine serum (DMEM). Ganglia were then cut into small pieces and transferred to DMEM containing 2 mg/ml collagenase and incubated for 30 minutes in a 37° C. incubator with 5% CO2 atmosphere. After 15 minutes incubation, the pieces were gently triturated by three passages through a glass capillary pulled to 0.2 mm i.d. The collagenase was then removed by three washes in 10 ml of DMEM. The final resuspension was into DMEM supplemented with 50 ng/ml NGF, 50 I.U./ml penicillin and […] streptomycin. Cells were then transferred onto glass coverslips coated with collagen and placed in a 37° C. incubator as above. […]
# TTXs sodium currents can be measured in large DRG neurons or in other cells or cell lines lacking TTXi Na channels. […]
# TTXi Na channels [1] = assay: Whole-cell electrophysiological assay of TTXi Na currents in capsaicin-sensitive DRG neurons; type: cell-based, Sprague-Dawley rat; details: membrane potential −55 mV
# Excerpt: (§1) . Using a voltage paradigm during which a pair of depolarizing steps to −10 mV are separated by a 4 ms repolarizing step, greater than 90% of TTXs Na currents remain inactivated (FIG. 2B, see below). FIGS. 2C and 2D present voltage families of the TTXi (rapidly recovering Na current) and TTXs (slowly recovering Na current), respectively, generated using this paired-pulse paradigm. TTXs currents (FIG. 2D) were generated by subtracting Na currents obtained following a prepulse to −10 mV from those obtained without a prepulse. The fraction of the total Na current carried by the fast-recovering, TTXi, Na channel varied from cell to cell (generally from 70-90% of Na current is carried by a TTXi conductance in capsaicin-sensitive DRGs). […].
# (§2) FIG. 4 presents Na currents obtained before and after exposure of cells to solutions containing 50, 100, 200, 500 and 1000 μM SNX-483 in a capsaicin-sensitive DRG neuron (PAN). […] In the experiments presented in FIG. 4, the capsaicin-sensitive neuron was held at −55 mV and stepped twice to −10 mV at 10 second intervals. Similar results have been obtained in every capsaicin-sensitive PAN tested (n=7). Only about 7% of the TTXi Na current that was blocked by 400 μM SNX-483 recovered within 15 minutes of continuously exchanging the recording chamber with fresh extracellular solution. […]
# TTXi Na channels [2] = target: TTXi Na channels (Rattus norvegicus, UniProt Q62968); assay: as above; type: cell-based, Sprague-Dawley rat; details: DRG neuron; 400 μM, depolarizing steps from holding potential −80 mV; read-out: block of TTXi Na current
# Excerpt: as §1, §2
# N-type Ca channel = target: T1, N-type Ca channel (Homo sapiens, UniProt Q00975); assay: Fluorometric Ca flux in INDO1-loaded IMR32 cells; type: cell-based; details: concentrations exceeding 300 AM (highest concentration tested)
# T1 construct: endogenous in cells; host or cells: IMR32 cells
# Description: (§3) In parallel experiments, SNX-483 was tested for its ability to block voltage-dependent calcium (Ca) and voltage-dependent potassium (K) channels. N- and L-type Ca channel-mediated Ca fluxes were measured fluorometrically using INDO1—loaded IMR32 and GH3 cells, respectively. At concentrations exceeding […] (the highest concentration tested), SNX-483 had no effect on either type of Ca flux.
# Kv1.2 K channel = target: T2, Kv1.2 K channel (Homo sapiens, UniProt P16389); assay: K currents of Shaker subfamily channels expressed in xenopus oocytes; type: cell-based; details: concentrations up to 1 μM
# T2 construct: expressed in transfected cells; host or cells: Xenopus oocytes
# Description: (§4) In addition, SNX-483 was evaluated for the ability to inhibit members of the Shaker subfamily of voltage-dependent K channels expressed in xenopus oocytes. At concentrations up to 1 μM, SNX-483 had no effect on K currents mediated by Kv1.1, Kv1.2, Kv1.3 or Kv1.4 K channels.
# Kv1.4 K channel = target: T3, Kv1.4 K channel (Homo sapiens, UniProt P22459); assay: as above; type: cell-based; details: concentrations up to 1 μM
# T3 construct: expressed in transfected cells; host or cells: Xenopus oocytes
# Description: as §4
# Kv1.3 K channel = target: T4, Kv1.3 K channel (Homo sapiens, UniProt P22001); assay: as above; type: cell-based; details: concentrations up to 1 μM
# T4 construct: expressed in transfected cells; host or cells: Xenopus oocytes
# Description: as §4
# Kv1.1 K channel = target: T5, Kv1.1 K channel (Homo sapiens, UniProt Q09470); assay: as above; type: cell-based; details: concentrations up to 1 μM
# T5 construct: expressed in transfected cells; host or cells: Xenopus oocytes
# Description: as §4
# L-type Ca channel = assay: Fluorometric Ca flux in INDO1-loaded GH3 cells; type: cell-based; details: concentrations exceeding 300 AM (highest concentration tested)
# Description: as §3
# T4 sequence (P22001 whole entry): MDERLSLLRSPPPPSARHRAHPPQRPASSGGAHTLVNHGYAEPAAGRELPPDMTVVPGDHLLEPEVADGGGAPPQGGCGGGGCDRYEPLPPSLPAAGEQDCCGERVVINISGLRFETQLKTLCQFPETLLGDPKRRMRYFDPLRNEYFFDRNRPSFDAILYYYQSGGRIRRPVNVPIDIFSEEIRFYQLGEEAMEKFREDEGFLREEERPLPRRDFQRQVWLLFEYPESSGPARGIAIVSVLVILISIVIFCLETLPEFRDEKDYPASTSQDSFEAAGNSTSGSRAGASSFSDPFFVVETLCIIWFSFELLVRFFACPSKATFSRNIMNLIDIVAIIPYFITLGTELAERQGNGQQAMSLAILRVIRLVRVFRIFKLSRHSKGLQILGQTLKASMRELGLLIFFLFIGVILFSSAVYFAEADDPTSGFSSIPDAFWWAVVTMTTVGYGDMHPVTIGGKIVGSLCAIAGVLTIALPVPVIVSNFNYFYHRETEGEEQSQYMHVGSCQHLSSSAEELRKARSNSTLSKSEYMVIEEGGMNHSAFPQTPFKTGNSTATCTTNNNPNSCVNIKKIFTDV
# T2 sequence (P16389 whole entry): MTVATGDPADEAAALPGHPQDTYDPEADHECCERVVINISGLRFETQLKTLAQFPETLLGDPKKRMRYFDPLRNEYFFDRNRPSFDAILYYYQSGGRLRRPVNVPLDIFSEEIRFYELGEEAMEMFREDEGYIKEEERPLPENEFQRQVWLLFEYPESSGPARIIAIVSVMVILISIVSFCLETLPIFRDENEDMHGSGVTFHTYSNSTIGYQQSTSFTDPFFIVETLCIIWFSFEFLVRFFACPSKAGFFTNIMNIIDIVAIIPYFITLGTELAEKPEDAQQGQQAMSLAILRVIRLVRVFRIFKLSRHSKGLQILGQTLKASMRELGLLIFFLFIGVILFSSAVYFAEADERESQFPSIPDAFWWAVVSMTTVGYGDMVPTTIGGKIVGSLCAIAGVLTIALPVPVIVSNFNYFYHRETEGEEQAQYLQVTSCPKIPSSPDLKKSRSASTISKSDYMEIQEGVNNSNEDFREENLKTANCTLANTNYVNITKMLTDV
# TTXi Na channels (Rattus norvegicus, UniProt Q62968), sequence (Q62968 whole entry): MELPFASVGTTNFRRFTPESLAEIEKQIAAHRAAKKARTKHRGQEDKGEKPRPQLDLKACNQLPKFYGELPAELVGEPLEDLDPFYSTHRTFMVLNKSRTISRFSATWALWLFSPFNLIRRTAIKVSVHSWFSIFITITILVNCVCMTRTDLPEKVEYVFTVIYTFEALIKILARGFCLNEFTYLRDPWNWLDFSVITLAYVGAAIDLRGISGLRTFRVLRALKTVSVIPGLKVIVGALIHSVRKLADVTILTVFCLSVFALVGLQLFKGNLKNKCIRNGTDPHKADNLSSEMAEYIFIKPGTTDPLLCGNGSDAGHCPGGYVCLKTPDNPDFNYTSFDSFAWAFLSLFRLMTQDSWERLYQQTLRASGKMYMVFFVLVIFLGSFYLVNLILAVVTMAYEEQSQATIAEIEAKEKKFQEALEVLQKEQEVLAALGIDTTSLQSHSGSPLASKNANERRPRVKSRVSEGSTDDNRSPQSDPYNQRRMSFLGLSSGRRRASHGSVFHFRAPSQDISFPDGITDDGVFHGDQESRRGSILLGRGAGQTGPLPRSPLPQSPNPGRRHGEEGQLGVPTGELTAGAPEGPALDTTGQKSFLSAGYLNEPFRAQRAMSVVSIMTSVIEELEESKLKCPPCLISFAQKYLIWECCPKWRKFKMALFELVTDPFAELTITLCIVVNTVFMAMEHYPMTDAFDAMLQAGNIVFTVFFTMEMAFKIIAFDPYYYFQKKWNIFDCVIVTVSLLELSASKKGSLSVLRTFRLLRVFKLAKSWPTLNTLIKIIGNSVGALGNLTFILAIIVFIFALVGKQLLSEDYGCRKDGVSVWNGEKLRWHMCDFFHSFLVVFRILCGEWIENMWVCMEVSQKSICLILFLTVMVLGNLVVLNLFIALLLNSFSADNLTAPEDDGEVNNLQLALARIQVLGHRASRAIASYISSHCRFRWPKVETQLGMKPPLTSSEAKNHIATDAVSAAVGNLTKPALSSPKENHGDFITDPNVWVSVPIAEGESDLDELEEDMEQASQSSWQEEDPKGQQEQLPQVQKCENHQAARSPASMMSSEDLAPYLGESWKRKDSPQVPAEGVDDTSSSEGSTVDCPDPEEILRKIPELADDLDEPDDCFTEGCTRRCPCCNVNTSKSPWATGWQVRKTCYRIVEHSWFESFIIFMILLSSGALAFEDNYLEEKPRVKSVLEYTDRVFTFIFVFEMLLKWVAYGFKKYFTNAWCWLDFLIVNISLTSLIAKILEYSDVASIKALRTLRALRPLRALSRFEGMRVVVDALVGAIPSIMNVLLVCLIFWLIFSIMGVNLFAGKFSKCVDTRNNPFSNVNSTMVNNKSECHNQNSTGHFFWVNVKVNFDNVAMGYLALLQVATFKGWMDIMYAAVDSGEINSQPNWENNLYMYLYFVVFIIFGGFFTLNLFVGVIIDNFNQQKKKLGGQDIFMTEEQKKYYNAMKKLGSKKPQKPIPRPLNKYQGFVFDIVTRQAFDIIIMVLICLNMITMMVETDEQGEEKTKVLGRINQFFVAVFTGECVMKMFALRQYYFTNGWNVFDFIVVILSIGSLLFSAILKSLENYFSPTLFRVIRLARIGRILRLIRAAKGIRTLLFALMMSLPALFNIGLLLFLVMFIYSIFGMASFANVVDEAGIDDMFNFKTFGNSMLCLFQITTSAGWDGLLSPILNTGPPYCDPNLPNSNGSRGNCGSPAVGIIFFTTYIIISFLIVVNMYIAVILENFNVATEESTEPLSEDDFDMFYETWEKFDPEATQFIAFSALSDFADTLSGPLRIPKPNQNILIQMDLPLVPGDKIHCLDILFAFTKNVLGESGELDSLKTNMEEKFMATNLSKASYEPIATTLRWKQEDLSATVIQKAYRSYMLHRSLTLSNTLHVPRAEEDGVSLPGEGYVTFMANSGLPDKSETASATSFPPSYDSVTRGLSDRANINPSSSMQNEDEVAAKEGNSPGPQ
# T3 sequence (P22459 whole entry): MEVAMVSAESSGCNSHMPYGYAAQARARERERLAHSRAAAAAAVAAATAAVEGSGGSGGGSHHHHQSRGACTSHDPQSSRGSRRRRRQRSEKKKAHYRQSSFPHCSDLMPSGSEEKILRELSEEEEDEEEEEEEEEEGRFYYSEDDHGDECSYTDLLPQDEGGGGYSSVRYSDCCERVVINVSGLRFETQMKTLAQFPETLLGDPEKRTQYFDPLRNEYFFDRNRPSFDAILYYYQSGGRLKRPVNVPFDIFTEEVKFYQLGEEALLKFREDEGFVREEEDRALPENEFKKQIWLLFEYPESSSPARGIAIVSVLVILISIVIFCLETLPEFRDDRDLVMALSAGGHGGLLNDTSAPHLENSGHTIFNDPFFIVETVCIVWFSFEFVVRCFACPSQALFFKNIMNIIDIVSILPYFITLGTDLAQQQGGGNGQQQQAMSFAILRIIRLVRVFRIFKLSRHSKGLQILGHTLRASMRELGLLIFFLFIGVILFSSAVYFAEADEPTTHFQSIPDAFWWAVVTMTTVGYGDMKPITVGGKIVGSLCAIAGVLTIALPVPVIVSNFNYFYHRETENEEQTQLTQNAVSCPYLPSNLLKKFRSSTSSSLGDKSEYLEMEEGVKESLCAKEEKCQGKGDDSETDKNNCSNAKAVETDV
# T5 sequence (Q09470 whole entry): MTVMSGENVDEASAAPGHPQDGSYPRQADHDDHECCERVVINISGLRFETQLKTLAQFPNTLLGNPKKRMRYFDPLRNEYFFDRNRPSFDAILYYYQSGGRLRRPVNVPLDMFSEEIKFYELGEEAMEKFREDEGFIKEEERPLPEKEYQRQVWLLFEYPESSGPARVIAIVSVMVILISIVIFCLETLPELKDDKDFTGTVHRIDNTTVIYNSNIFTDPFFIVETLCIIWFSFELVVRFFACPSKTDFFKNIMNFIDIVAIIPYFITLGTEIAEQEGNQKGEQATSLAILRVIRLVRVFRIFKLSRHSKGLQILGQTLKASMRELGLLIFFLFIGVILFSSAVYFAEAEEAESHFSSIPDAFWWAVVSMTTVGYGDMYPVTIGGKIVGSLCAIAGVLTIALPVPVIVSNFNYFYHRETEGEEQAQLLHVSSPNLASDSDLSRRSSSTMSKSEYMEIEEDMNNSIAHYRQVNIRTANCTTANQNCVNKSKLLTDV
smiles,measurement,setting,value
"CCNCC(=O)Nc1c(C)ccc(O)c1C [SNX-483, 2-(ethylamino)-N-(3-hydroxy-2,6-dimethylphenyl) acetamide]",block of TTXs Na currents,"TTXs Na channels; 400 μM, large capsaicin-insensitive DRG clamped at −55 mV, 16 ms repolarizing step",does not block
same,IC50,TTXs Na channels; membrane potential −55 mV,222 ± 12 µM
same,"Potency ratio 1/(IC50, TTXi/IC50, TTXs)",TTXi Na channels [1],3.1
same,inhibition at 400 µM,TTXi Na channels [2],20%
same,effect on N-type Ca channel-mediated Ca flux,N-type Ca channel,no effect
same,effect on K currents mediated by Kv1.2,Kv1.2 K channel,no effect
same,effect on K currents mediated by Kv1.4,Kv1.4 K channel,no effect
same,effect on K currents mediated by Kv1.3,Kv1.3 K channel,no effect
same,effect on K currents mediated by Kv1.1,Kv1.1 K channel,no effect
same,effect on L-type Ca channel-mediated Ca flux,L-type Ca channel,no effect

# Reference: patent US6489119B1, “Analgesic screening method and composition” (priority 1996, dated 2002)
